Measured values from patent publication US10385065B2, “Antibacterial compounds” (priority 2014, dated 2019).
Values after ≈ are worked out from the molar mass of the structure shown. Read-outs that look alike come from different tables or passages of the source.

Key:
Format in all cases: cell-based
[1] = system: S. aureus (MRSA) ATCC 43300; assay: MIC, S. aureus ATCC 43300; settings: Staphylococcus aureus; Table 2; read-out: MIC S. aureus (MRSA) ATCC 43300 Heterogeneous MRSA strain
[2] = system: Haemophilus influenzae ATCC 49247; assay: MIC, H. influenzae ATCC 49247; settings: ATCC49247, Table 4
S. aureus NRS1 MRSA = assay: MIC, S. aureus NRS1; settings: Staphylococcus aureus; Table 2; read-out: MIC S. aureus NRS1 MRSA AMG & TET resistant
[3] = system: human hepatic cell line (HepG2 ATCC HB-8065); assay: Human cell viability assay (CellTiter-Glo), HepG2; settings: HepG2, 24 h incubation, tested over 1-128 μg/mL, read-out: IC50 values against HepG2
How it was run: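 HepG2 seeded at 20,000 cells/well, then after 24 h given two-fold serial dilutions (1-128 μg/mL, 1% DMSO) in DMEM with 0.001% FBS and 0.3% albumin. After 24 h at 37 °C, ATP luminescence (CellTiter-Glo) read; IC50 is the concentration halving viability.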

[4] = system: Enterococcus faecium ATCC 19434; assay: MIC, E. faecium ATCC 19434; settings: ATCC19434, Table 2
[5] = system: S. epidermidis NRS101 MRSE; assay: MIC, S. epidermidis NRS101; settings: Staphylococcus epidermidis; Table 2; read-out: MIC S. epidermidis NRS101 MRSE AMG, ERY resistant
[6] = system: S. aureus SACPX1-SP25 MSSA - FQ resistant; assay: microbe, parasite or virus in culture; settings: Staphylococcus aureus, ATCC 29213 / MSSA, read-out: MIC S. aureus SACPX1-SP25 MSSA - FQ resistant (isogenic mutant of ATCC 29213)
[7] = system: S. aureus VRS1 MRSA VAN resistant; assay: MIC, S. aureus VRS1; settings: Staphylococcus aureus, Table 2
[8] = system: S. aureus NRS127 MRSA LZD resistant; assay: MIC, S. aureus NRS127; settings: Staphylococcus aureus; Table 2
[9] = system: Escherichia coli ATCC 25922; assay: MIC, broth microdilution, E. coli ATCC 25922; settings: ATCC25922, Table 1, wild type strain
[10] = system: S. aureus NRS482 MRSA FQ resistant; assay: MIC, S. aureus NRS482; settings: Staphylococcus aureus; Table 2
[11] = system: Staphylococcus aureus ATCC 29213; assay: MIC, broth microdilution, S. aureus ATCC 29213
[12] = system: Legionella pneumophila ATCC 33152; assay: microbe, parasite or virus in culture; settings: ATCC33152, 48 h, read-out: MIC Legionella pneumophila ATCC 33152
[13] = system: Moraxella catarrhalis ATCC 25240; assay: MIC, M. catarrhalis ATCC 25240; settings: ATCC25240, Table 4
[14] = system: Neisseria gonorrhoeae ATCC 49226; assay: MIC, N. gonorrhoeae ATCC 49226; settings: ATCC49226, Table 4, 24 h incubation
[15] = ATCC29213, Table 1, wild type strain, read-out: MIC S. aureus ATCC 29213
[16] = ATCC 29213 / MSSA, Table 2, read-out: MIC S. aureus (MSSA) ATCC 29213 CLSI control strain

| Compound | MIC [1] | MIC [2] | MIC (S. aureus NRS1 MRSA) | IC50 [3] | MIC [4] | MIC [5] | MIC [6] | MIC [7] | MIC [8] | MIC [9] | MIC [10] | MIC [11, 15] | MIC [11, 16] | MIC [12] | MIC [13] | MIC [14] |
| --- | --- | --- | --- | --- | --- | --- | --- | --- | --- | --- | --- | --- | --- | --- | --- | --- |
| Cc1c(-c2cnc3[nH]ncc3c2)ccc2c3ocnc3c(=O)n(C3CC3)c12 [Compound 20, 5-cyclopropyl-6-methyl-7-(1H-pyrazolo[3,4-b]pyridine-5-yl)oxazolo[4,5-c]quinolin-4-one] | < 1 µg/mL | < 1 µg/mL | < 1 µg/mL | > 100 µg/mL | 1 to 10 µg/mL (≈ 2.8 to 28 µM) | < 1 µg/mL | < 1 µg/mL | < 1 µg/mL | < 1 µg/mL | 1 to 10 µg/mL (≈ 2.8 to 28 µM) | < 1 µg/mL | < 1 µg/mL | < 1 µg/mL |  |  |  |
| Cc1nc2c(=O)n3c4c(c(N5CC[C@@H](CN)C5)c(F)cc4c2o1)OC[C@@H]3C [Compound 90, (2S)-6-[(3S)-3-(aminomethyl)pyrrolidin-1-yl]-7-fluoro-2,12-dimethyl-4,11-dioxa-1,13-diazatetracyclo[7.6.1.0^5,^16.0^10,^14]hexadeca-5(16),6,8,10(14),12-pentaen-15-one] | < 1 µg/mL | 1 to 10 µg/mL (≈ 2.69 to 26.9 µM) | 1 to 10 µg/mL (≈ 2.69 to 26.9 µM) | 10 to 100 µg/mL (≈ 26.9 to 269 µM) |  |  | 1 to 10 µg/mL (≈ 2.69 to 26.9 µM) | 10 to 100 µg/mL (≈ 26.9 to 269 µM) | 1 to 10 µg/mL (≈ 2.69 to 26.9 µM) | 1 to 10 µg/mL (≈ 2.69 to 26.9 µM) | 1 to 10 µg/mL (≈ 2.69 to 26.9 µM) | < 1 µg/mL | < 1 µg/mL | 1 to 10 µg/mL (≈ 2.69 to 26.9 µM) | 1 to 10 µg/mL (≈ 2.69 to 26.9 µM) |  |
| Cc1nc2c(=O)n(C3CC3)c3c(C)c(-c4ccc5cn[nH]c5c4)ccc3c2o1 [Compound 27, 5-cyclopropyl-7-(l H-indazol-6-yl)-2,6-dimethyl-oxazolo[4,5-c]quinolin-4-one] | < 1 µg/mL | 1 to 10 µg/mL (≈ 2.7 to 27 µM) | 1 to 10 µg/mL (≈ 2.7 to 27 µM) | 10 to 100 µg/mL (≈ 27 to 270 µM) | > 100 µg/mL | < 1 µg/mL |  | 10 to 100 µg/mL (≈ 27 to 270 µM) | 10 to 100 µg/mL (≈ 27 to 270 µM) | 1 to 10 µg/mL (≈ 2.7 to 27 µM) | < 1 µg/mL | < 1 µg/mL | < 1 µg/mL |  |  |  |
| Cc1nc2c(=O)n(C3CC3)c3c(C)c(-c4ccc(N)nc4)ccc3c2o1 [Compound 23, 7-(6-amino-3-pyridyl)-5-cyclopropyl-2,6-dimethyl-oxazolo[4,5-c]quinolin-4-one] | < 1 µg/mL | 1 to 10 µg/mL (≈ 2.89 to 28.9 µM) | 1 to 10 µg/mL (≈ 2.89 to 28.9 µM) |  | > 100 µg/mL | 1 to 10 µg/mL (≈ 2.89 to 28.9 µM) | 1 to 10 µg/mL (≈ 2.89 to 28.9 µM) | 10 to 100 µg/mL (≈ 28.9 to 289 µM) | 1 to 10 µg/mL (≈ 2.89 to 28.9 µM) | 1 to 10 µg/mL (≈ 2.89 to 28.9 µM) | 1 to 10 µg/mL (≈ 2.89 to 28.9 µM) | < 1 µg/mL | < 1 µg/mL |  |  | 1 to 10 µg/mL (≈ 2.89 to 28.9 µM) |
| Cc1c(-c2cc(F)c(CO)cc2F)ccc2c3ocnc3c(=O)n(C3CC3)c12 [Compound 25, 5-cyclopropyl-7-[2,5-difluoro-4-(hydroxymethyl)phenyl]-6-methyl-oxazolo[4,5-c]quinolin-4-one] | < 1 µg/mL | < 1 µg/mL | < 1 µg/mL | 10 to 100 µg/mL (≈ 26.2 to 262 µM) | 10 to 100 µg/mL (≈ 26.2 to 262 µM) | < 1 µg/mL |  | < 1 µg/mL | < 1 µg/mL | 1 to 10 µg/mL (≈ 2.62 to 26.2 µM) | < 1 µg/mL | < 1 µg/mL | < 1 µg/mL |  |  |  |
| C[C@H]1COc2c(-c3cc(F)c(N)cc3F)ccc3c4ocnc4c(=O)n1c23 [Compound 93, (2S)-6-(4-amino-2,5-difluorophenyl)-2-methyl-4,11-dioxa-1,13-diazatetracyclo[7.6.1.0^5,^16.0^10,^14]hexadeca-5(16),6,8,10(14),12-pentaen-15-one] | < 1 µg/mL | < 1 µg/mL |  | > 100 µg/mL | 10 to 100 µg/mL (≈ 27.1 to 271 µM) |  | 1 to 10 µg/mL (≈ 2.71 to 27.1 µM) | 1 to 10 µg/mL (≈ 2.71 to 27.1 µM) |  | 1 to 10 µg/mL (≈ 2.71 to 27.1 µM) | 1 to 10 µg/mL (≈ 2.71 to 27.1 µM) | 1 to 10 µg/mL (≈ 2.71 to 27.1 µM) | 1 to 10 µg/mL (≈ 2.71 to 27.1 µM) | < 1 µg/mL | 1 to 10 µg/mL (≈ 2.71 to 27.1 µM) | < 1 µg/mL |
| Cc1c(-c2cnc3[nH]nc(N)c3c2)ccc2c3ocnc3c(=O)n(C3CC3)c12 [Compound 21, 7-(3-amino-1H-pyrazolo[3,4-b]pyridine-5-yl)-5-cyclopropyl-6-methyl-oxazolo[4,5-c]quinolin-4-one] | < 1 µg/mL | 1 to 10 µg/mL (≈ 2.69 to 26.9 µM) | < 1 µg/mL | 10 to 100 µg/mL (≈ 26.9 to 269 µM) | 1 to 10 µg/mL (≈ 2.69 to 26.9 µM) | < 1 µg/mL |  | < 1 µg/mL | < 1 µg/mL | 10 to 100 µg/mL (≈ 26.9 to 269 µM) | < 1 µg/mL | < 1 µg/mL | < 1 µg/mL |  |  |  |
